Experimental data as given in ChEMBL document CHEMBL1782045, “Discovery, synthesis, and investigation of the antitumor activity of novel piperazinylpyrimidine derivatives” (Eur J Med Chem, 2011).

How the values were obtained:
[1] = test system: NCI-H23; test: Growth inhibition of human NCI-H23 cells after 48 hrs by sulforhodamine B assay; type: functional; conditions: NCI-H23, 48 h
[2] = test system: HCC 2998; test: Growth inhibition of human HCC2998 cells after 48 hrs by sulforhodamine B assay; type: functional; conditions: HCC 2998, 48 h
[3] = biological target: Mast/stem cell growth factor receptor Kit (Homo sapiens) (UniProt P10721); test: Binding affinity to human KIT at 10 uM incubated for 1 hr by kinase binding assay relative to untreated control
Sequence of Mast/stem cell growth factor receptor Kit (Homo sapiens) (P10721 whole entry): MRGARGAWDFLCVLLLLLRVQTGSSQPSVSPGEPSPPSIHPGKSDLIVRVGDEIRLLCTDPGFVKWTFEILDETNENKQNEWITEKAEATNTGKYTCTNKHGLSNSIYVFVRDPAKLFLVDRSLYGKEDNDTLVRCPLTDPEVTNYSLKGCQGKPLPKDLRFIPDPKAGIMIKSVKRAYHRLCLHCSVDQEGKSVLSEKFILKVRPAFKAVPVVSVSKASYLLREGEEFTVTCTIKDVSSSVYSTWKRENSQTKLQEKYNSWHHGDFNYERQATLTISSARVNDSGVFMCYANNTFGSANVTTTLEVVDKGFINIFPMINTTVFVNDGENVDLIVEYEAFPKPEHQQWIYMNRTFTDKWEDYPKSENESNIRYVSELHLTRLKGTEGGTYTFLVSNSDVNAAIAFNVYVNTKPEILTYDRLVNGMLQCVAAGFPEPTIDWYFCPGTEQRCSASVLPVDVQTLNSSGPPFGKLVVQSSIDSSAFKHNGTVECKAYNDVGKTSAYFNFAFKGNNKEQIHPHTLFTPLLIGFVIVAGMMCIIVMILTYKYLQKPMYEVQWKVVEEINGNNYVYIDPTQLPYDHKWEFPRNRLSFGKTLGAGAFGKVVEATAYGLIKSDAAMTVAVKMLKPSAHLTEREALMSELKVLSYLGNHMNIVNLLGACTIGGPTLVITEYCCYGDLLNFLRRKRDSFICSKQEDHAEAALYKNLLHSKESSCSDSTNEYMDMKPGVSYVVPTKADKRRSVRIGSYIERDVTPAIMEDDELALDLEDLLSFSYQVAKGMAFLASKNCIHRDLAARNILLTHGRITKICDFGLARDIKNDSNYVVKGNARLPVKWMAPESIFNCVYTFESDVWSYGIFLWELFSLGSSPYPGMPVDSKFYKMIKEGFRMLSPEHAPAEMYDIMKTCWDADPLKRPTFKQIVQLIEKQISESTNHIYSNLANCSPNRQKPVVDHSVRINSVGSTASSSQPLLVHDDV

[4] = biological target: Platelet-derived growth factor receptor alpha (Homo sapiens) (UniProt P16234); test: Binding affinity to human PDGFRA at 10 uM incubated for 1 hr by kinase binding assay relative to untreated control
Sequence of Platelet-derived growth factor receptor alpha (Homo sapiens) (P16234 whole entry): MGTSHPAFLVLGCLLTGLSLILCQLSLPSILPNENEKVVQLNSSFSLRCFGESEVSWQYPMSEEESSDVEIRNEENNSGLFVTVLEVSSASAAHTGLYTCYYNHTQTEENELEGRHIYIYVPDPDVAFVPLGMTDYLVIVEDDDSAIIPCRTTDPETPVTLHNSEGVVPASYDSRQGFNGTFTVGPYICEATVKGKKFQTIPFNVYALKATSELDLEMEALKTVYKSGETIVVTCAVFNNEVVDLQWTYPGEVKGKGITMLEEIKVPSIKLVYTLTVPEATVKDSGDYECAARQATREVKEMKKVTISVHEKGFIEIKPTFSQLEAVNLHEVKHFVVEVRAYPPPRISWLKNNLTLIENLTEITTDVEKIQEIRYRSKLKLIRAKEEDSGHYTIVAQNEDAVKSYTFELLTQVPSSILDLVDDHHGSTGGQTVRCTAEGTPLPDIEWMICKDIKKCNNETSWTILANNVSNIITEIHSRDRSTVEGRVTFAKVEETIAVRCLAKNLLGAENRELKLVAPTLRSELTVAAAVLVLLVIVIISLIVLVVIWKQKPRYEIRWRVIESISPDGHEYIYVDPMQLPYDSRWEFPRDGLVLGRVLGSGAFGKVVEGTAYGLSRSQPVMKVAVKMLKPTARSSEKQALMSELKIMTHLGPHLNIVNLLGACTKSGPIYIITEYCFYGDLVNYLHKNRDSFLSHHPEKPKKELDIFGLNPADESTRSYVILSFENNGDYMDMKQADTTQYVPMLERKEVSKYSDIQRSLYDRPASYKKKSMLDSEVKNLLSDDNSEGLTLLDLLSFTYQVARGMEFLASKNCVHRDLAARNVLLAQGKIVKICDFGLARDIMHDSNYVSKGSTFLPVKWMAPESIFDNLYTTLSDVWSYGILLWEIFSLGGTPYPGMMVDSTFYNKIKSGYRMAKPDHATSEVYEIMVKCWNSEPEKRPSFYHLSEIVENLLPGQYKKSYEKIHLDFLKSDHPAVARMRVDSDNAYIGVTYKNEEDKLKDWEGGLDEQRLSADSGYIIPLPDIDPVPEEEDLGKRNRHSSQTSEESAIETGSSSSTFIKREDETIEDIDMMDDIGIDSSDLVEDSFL

[5] = test system: BT-549; test: Growth inhibition of human BT549 cells after 48 hrs by sulforhodamine B assay; type: functional; conditions: BT-549, 48 h
[6] = test system: MDA-MB-468; test: Growth inhibition of human MDA-MB-468 cells after 48 hrs by sulforhodamine B assay; type: functional; conditions: MDA-MB-468, 48 h
[7] = test system: Mast/stem cell growth factor receptor Kit (Homo sapiens), P10721 [V560G]; test: Inhibition of human KIT V560G using gamma-33P-ATP as substrate assessed as enzyme functional activity at 1 uM by scintillation counting relative to untreated control; parameters: scale not given: the % may be the effect or the level left
Sequence of Mast/stem cell growth factor receptor Kit (Homo sapiens), P10721 [V560G] (P10721 whole entry V560G): as the sequence (P10721 whole entry) above, with V560G counted along it

[8] = test system: CCRF-CEM; test: Growth inhibition of human CCRF-CEM cells after 48 hrs by sulforhodamine B assay; type: functional
[9] = test system: HL-60(TB); test: Growth inhibition of human HL-60(TB) cells after 48 hrs by sulforhodamine B assay; type: functional; conditions: HL-60, 48 h
[10] = test system: MOLT-4; test: Growth inhibition of human MOLT4 cells after 48 hrs by sulforhodamine B assay; type: functional; conditions: MOLT-4, 48 h
[11] = test system: HOP-92; test: Growth inhibition of human HOP92 cells after 48 hrs by sulforhodamine B assay; type: functional; conditions: HOP-92, 48 h
[12] = test system: M14; test: Growth inhibition of human M14 cells after 48 hrs by sulforhodamine B assay; type: functional; conditions: M14, 48 h
[13] = test system: SK-MEL-28; test: Growth inhibition of human SK-MEL-28 cells after 48 hrs by sulforhodamine B assay; type: functional; conditions: SK-MEL-28, 48 h
[14] = test system: IGROV-1; test: Growth inhibition of human IGROV1 cells after 48 hrs by sulforhodamine B assay; type: functional; conditions: IGROV-1, 48 h
[15] = biological target: T1, Receptor-type tyrosine-protein kinase FLT3 (Homo sapiens, UniProt P36888); test: Binding affinity to human FLT3 incubated for 1 hr by kinase binding assay
T1 sequence (P36888 whole entry): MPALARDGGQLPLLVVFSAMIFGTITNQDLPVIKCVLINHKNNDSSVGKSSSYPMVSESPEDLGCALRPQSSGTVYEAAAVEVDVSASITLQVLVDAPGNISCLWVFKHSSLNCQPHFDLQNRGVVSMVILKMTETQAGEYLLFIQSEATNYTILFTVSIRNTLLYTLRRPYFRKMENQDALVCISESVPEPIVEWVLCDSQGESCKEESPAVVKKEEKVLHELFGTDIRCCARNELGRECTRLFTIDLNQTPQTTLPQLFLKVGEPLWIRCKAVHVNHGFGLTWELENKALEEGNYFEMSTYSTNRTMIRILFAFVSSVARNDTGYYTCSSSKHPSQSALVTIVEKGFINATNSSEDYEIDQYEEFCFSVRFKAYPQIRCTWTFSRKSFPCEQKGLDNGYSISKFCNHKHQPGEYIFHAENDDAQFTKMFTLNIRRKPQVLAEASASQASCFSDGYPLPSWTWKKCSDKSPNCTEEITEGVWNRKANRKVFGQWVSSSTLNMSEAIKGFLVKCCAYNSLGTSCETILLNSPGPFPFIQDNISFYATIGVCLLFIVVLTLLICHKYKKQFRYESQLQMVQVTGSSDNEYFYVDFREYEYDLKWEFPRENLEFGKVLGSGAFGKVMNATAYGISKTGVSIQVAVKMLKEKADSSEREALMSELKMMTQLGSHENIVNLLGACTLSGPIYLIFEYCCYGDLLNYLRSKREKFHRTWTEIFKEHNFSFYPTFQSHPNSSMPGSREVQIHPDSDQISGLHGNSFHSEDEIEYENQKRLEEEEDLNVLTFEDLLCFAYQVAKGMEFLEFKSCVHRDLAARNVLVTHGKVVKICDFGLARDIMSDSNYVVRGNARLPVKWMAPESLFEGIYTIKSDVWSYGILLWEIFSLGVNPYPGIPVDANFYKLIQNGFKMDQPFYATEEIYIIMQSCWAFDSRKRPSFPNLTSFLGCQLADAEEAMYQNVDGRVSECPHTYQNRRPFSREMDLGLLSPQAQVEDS

[16] = test system: UO-31; test: Growth inhibition of human UO31 cells after 48 hrs by sulforhodamine B assay; type: functional; conditions: UO-31, 48 h
[17] = test system: PC-3; test: Growth inhibition of human PC3 cells after 48 hrs by sulforhodamine B assay; type: functional; conditions: PC-3, 48 h
[18] = test system: MCF7; test: Growth inhibition of human MCF7 cells after 48 hrs by sulforhodamine B assay; type: functional; conditions: MCF7, 48 h
[19] = biological target: T1, Receptor-type tyrosine-protein kinase FLT3; test: Inhibition of human FLT3 using gamma-33P-ATP as substrate by scintillation counting
[20] = test system: SF-295; test: Growth inhibition of human SF295 cells after 48 hrs by sulforhodamine B assay; type: functional; conditions: SF-295, 48 h
[21] = test system: OVCAR-4; test: Growth inhibition of human OVCAR4 cells after 48 hrs by sulforhodamine B assay; type: functional; conditions: OVCAR-4, 48 h

SMILES	TGI [1]	TGI [2]	Activity [3]	Activity [4]	TGI [5]	Activity [7]	TGI [8]	TGI [9]	TGI [11]	TGI [12]	TGI [13]	TGI [14]	TGI [16]	TGI [17]	TGI [18]	other results
O=C(c1cccc(Nc2ncnc3ccccc23)c1)N1CCN(c2ncc(Cc3ccccc3)cn2)CC1	2.69 µM	3.98 µM	> 50%	> 50%	1.74 µM	86%	–	–	–	–	–	–	–	–	–	TGI [6]: 3.47 µM
c1ccc(Cc2cnc(N3CCN(c4ncnc5ccccc45)CC3)nc2)cc1	30.8 µM	60.9 µM	–	–	18.4 µM	–	64.4 µM	41.8 µM	24.2 µM	26.3 µM	99.3 µM	63.3 µM	38.4 µM	> 100 µM	58.2 µM	TGI [10]: 40.6 µM; Kd [15]: 0.46 µM; IC50 [19]: 6.69 µM
CCc1cnc(N2CCN(C(=O)c3ccc(CNc4ncnc5ccccc45)cc3)CC2)nc1	–	–	> 50%	> 50%	–	99%	60.9 µM	38.6 µM	80.1 µM	32.7 µM	> 100 µM	49.8 µM	60.5 µM	> 100 µM	72.8 µM	GI50 [8]: 10 µM; TGI [20]: 23.1 µM; TGI [21]: 58.8 µM
